# Source: patent US20260097139A1, “GONADOTROPIN-RELEASING HORMONE RECEPTOR (GnRHR) TARGETED THERAPEUTICS AND USES THEREOF” (Radionetics Oncology, Inc., priority 2022, published 2026)
# Biological target: T1, human GnRH receptor (Homo sapiens, UniProt P30968)
# T1 construct: expressed in transfected cells
# T1 sequence (P30968 1-328): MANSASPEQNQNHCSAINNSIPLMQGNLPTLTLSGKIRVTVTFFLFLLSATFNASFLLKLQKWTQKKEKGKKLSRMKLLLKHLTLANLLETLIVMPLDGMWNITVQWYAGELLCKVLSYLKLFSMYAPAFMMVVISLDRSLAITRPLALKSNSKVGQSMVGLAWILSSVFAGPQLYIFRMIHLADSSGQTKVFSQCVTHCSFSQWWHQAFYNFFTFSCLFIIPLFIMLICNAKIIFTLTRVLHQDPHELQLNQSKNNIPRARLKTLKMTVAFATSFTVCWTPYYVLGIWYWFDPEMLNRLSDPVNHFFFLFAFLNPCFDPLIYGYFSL
# Test: IP-One functional assay for GnRHR (reported as hGnRHR Binding Ki)
# Assay type: cell-based
# Settings: incubation time 60 min; FlpIn T-Rex 293 cells expressing human GnRH receptor; read-out: hGnRHR Binding Ki 60 min
# Source text: General overview: GnRHR is a Gq/11-coupled receptor that mediates the action of the GnRH hormone by activating the phosphatidylinositol-calcium second messenger system. Activation of the GnRHR induces the accumulation of inositol monophosphate, a stable metabolite of IP-3, that can be characterized as a measure of agonistic activity (increase in IP-One) or antagonistic activity (blockade of IP-One accumulation) by compounds of the invention. One example of an intracellular IP-One assay used to characterize GnRHR antagonists is described below.
# 24 hours prior to the assay, 30,000 FlpIn T-Rex 293 Cells (ThermoFisher #R78007) stably expressing the functional human GnRH receptor upon induction with tetracycline were plated in a 96-well tissue culture-treated plate in FlpIn T-Rex 293 Growth Medium [DMEM (Corning #10-013-CM) supplemented with 10% fetal bovine serum (Gemini Bio-Products #900-208), 100 U/mL penicillin; 100 μg/mL streptomycin; 2 mM L-glutamine (Gemini Bio-Products #400-110)] and 50 ng/mL tetracycline hydrocholoride (Sigma, T7660). Cells were cultured at 37° C., 5% CO2 and 95% humidity. On the day of the assay, the growth media was discarded and the cells were treated with 50 μL of a dose response curve of GnRH (Bachem #4033013) in the presence of various concentrations of fixed compound in assay buffer [10 mM HEPES (Biopioneer Cat #C0113) pH 7.4, 1 mM CaCl2) (Fisher Scientific BP510-100), 0.5 mM MgCl2 (Sigma M8266-100G), 4.2 mM KCl (Fisher Scientific P330-500), 146 mM NaCl (Spectrum Chemical #SO155), 5.5 mM Glucose (Sigma G7528), 50 mM LiCl (Fisher Scientific L121-100), 0.1% bovine serum albumin (Fisher Scientific Cat #BP1600)] and incubated for 1 hour at 37° C. (the final concentrations of GnRH ranged from 0-250 nM and the final concentrations of the compound ranged from 0-10,000 nM). 50 μL of lysis buffer (HRTF IP-one kit, Cisbio) was added on top of the treatment to lyse the cells. The lysate was transferred to 384-well plates and IP-one detection and visualization antibodies were added and incubated for 1-24 hours at room temperature. The time-resolved fluorescent signal was read with a Tecan M1000Pro (Tecan) multiplate reader. The intracellular IP-one concentrations were calculated by regression to a standard curve and were plotted vs. the concentration of the GnRH agonists in the presence of various concentrations of antagonist and the Ks of the compounds were calculated using standard curve-fitting methods. All data manipulations were performed using GraphPad Prism v8 (GraphPad, San Diego, CA).
# For some analogs, the incubation time was 2 h or 4 h, as noted in Table A.
row,Ki [nM],Compound
1,< 10,"CN(C(=O)c1ccc(Cl)c(-c2cnc(C(F)(F)F)cc2C#N)c1)c1ccccc1OCCC(=O)NCCOCCOCCOCCOCCOCCOCCOCCOCCNC(=O)CN1CCN(CC(=O)O)CCN(CC(=O)O)CCN(CC(=O)O)CC1 [Compound 2, 2,2′,2″-(10-(33-(2-(4-chloro-3-(4-cyano-6-(trifluoromethyl)pyridin-3-yl)-N-methylbenzamido)phenoxy)-2,31-dioxo-6,9,12,15,18,21,24,27-octaoxa-3,30-diazatritriacontyl)-1,4,7,10-tetraazacyclododecane-1,4,7-triyl)triacetic acid]"
2,< 10,"CN(C(=O)c1ccc(Cl)c(-c2cnc(C(F)(F)F)cc2C#N)c1)c1ccccc1OCCOCCOCCOCCOCCOCCOCCOCCOCCNC(=O)CN1CCN(CC(=O)O)CCN(CC(=O)O)CCN(CC(=O)O)CC1 [Compound 3M-In, indium(III) 2,2′,2″-(10-(29-(2-(4-chloro-3-(4-cyano-6-(trifluoromethyl)pyridin-3-yl)-N-methylbenzamido)phenoxy)-2-oxo-6,9,12,15,18,21,24,27-octaoxa-3-azanonacosyl)-1,4,7,10-tetraazacyclododecane-1,4,7-triyl)triacetate]"
3,< 10,"COc1ccccc1N(C)C(=O)c1cc(-c2cnc(C(F)(F)F)cc2C#N)c(Cl)cc1OCCOCCOCCOCCOCCOCCOCCOCCOCCNC(=O)CN1CCN(CC(=O)O)CCN(CC(=O)O)CCN(CC(=O)O)CC1 [Compound 5M-In, indium(III) 2,2′,2″-(10-(29-(5-chloro-4-(4-cyano-6-(trifluoromethyl)pyridin-3-yl)-2-((2-methoxyphenyl) (methyl)carbamoyl)phenoxy)-2-oxo-6,9,12,15,18,21,24,27-octaoxa-3-azanonacosyl)-1,4,7,10-tetraazacyclododecane-1,4,7-triyl)triacetate]"
4,< 10,"COc1ccccc1N(C)C(=O)c1cc(-c2cnc(C(F)(F)F)cc2C#N)c(Cl)cc1OCCCC(=O)NCCOCCOCCOCCOCCOCCOCCOCCOCCNC(=O)CN1CCN(CC(=O)O)CCN(CC(=O)O)CCN(CC(=O)O)CC1 [Compound 6M-In, indium(III) 2,2′,2″-(10-(34-(5-chloro-4-(4-cyano-6-(trifluoromethyl)pyridin-3-yl)-2-((2-methoxyphenyl)(methyl)carbamoyl)phenoxy)-2,31-dioxo-6,9,12,15,18,21,24,27-octaoxa-3,30-diazatetratriacontyl)-1,4,7,10-tetraazacyclododecane-1,4,7-triyl)triacetate]"
5,< 10,"Cc1cccc(OCCC(=O)NCCOCCOCCOCCOCCOCCOCCOCCOCCNC(=O)CN2CCN(CC(=O)O)CCN(CC(=O)O)CCN(CC(=O)O)CC2)c1N(C)C(=O)c1ccc(Cl)c(-c2cnc(C(F)(F)F)cc2C#N)c1 [Compound 8, 2,2′,2″-(10-(33-(2-(4-chloro-3-(4-cyano-6-(trifluoromethyl)pyridin-3-yl)-N-methylbenzamido)-3-methylphenoxy)-2,31-dioxo-6,9,12,15,18,21,24,27-octaoxa-3,30-diazatritriacontyl)-1,4,7,10-tetraazacyclododecane-1,4,7-triyl)triacetic acid]"

# Same assay, conditions: incubation time 2 h; FlpIn T-Rex 293 cells expressing human GnRH receptor; read-out: hGnRHR Binding Ki 2 h
row,Ki [nM],Compound
1,< 10,"COc1nc(OCCOCCOCCOCCOCCOCCOCCOCCOCCNC(=O)CN2CCN(CC(=O)O)CCN(CC(=O)O)CCN(CC(=O)O)CC2)nc(OC)c1NC(=O)c1ccc(Oc2cc3c(cc2C)CCC3(C)C)o1 [Compound 4, 2,2′,2″-(10-(29-((4,6-dimethoxy-5-(5-((3,3,6-trimethyl-2,3-dihydro-1H-inden-5-yl)oxy)furan-2-carboxamido)pyrimidin-2-yl)oxy)-2-oxo-6,9,12,15,18,21,24,27-octaoxa-3-azanonacosyl)-1,4,7,10-tetraazacyclododecane-1,4,7-triyl)triacetic acid]"
2,< 10,"CC1(C)CCN(S(=O)(=O)c2cc(-c3cnc(C(F)(F)F)cc3C#N)c(Cl)cc2OCCOCCOCCOCCOCCOCCOCCOCCOCCNC(=O)CN2CCN(CC(=O)O)CCN(CC(=O)O)CCN(CC(=O)O)CC2)c2ccccc21 [Compound 7, 2,2′,2″-(10-(29-(5-chloro-4-(4-cyano-6-(trifluoromethyl)pyridin-3-yl)-2-((4,4-dimethyl-3,4-dihydroquinolin-1(2H)-yl)sulfonyl)phenoxy)-2-oxo-6,9,12,15,18,21,24,27-octaoxa-3-azanonacosyl)-1,4,7,10-tetraazacyclododecane-1,4,7-triyl)triacetic acid]"
3,< 10,"COc1nc(SCCC(=O)NCCC[C@@H](NC(=O)CN2CCN(CC(=O)O)CCN(CC(=O)O)CCN(CC(=O)O)CC2)C(=O)O)nc(OC)c1NC(=O)c1ccc(Oc2cc3c(cc2C)CCC3(C)C)o1 [Compound 16, (R)-2,2′,2″-(10-(2-((1-carboxy-4-(3-((4,6-dimethoxy-5-(5-((3,3,6-trimethyl-2,3-dihydro-1H-inden-5-yl)oxy)furan-2-carboxamido)pyrimidin-2-yl)thio)propanamido)butyl)amino)-2-oxoethyl)-1,4,7,10-tetraazacyclododecane-1,4,7-triyl)triacetic acid]"
4,< 10,"COc1nc(SCCC(=O)NCCN(C)CCNC(=O)CN2CCN(CC(=O)O)CCN(CC(=O)O)CCN(CC(=O)O)CC2)nc(OC)c1NC(=O)c1ccc(Oc2cc3c(cc2C)CCC3(C)C)o1 [Compound 17, 2,2′,2″-(10-(2-((2-((2-(3-((4,6-dimethoxy-5-(5-((3,3,6-trimethyl-2,3-dihydro-1H-inden-5-yl)oxy)furan-2-carboxamido)pyrimidin-2-yl)thio)propanamido)ethyl)(methyl)amino)ethyl)amino)-2-oxoethyl)-1,4,7,10-tetraazacyclododecane-1,4,7-triyl)triacetic acid]"
5,< 10,"COc1nc(SCCC(=O)NCCN(C)CCNC(=O)[C@H](N)CCCNC(=O)CN2CCN(CC(=O)O)CCN(CC(=O)O)CCN(CC(=O)O)CC2)nc(OC)c1NC(=O)c1ccc(Oc2cc3c(cc2C)CCC3(C)C)o1 [Compound 19, (R)-2,2′,2″-(10-(7-amino-18-((4,6-dimethoxy-5-(5-((3,3,6-trimethyl-2,3-dihydro-1H-inden-5-yl)oxy)furan-2-carboxamido)pyrimidin-2-yl)thio)-12-methyl-2,8,16-trioxo-3,9,12,15-tetraazaoctadecyl)-1,4,7,10-tetraazacyclododecane-1,4,7-triyl)triacetic acid]"
